The source of these data is PubChem BioAssay (NCI).

One may read the TGI as the concentration giving total growth inhibition. The GI50 is the concentration at which growth is held to half of that of the control.

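Growth conditions: 96-well plates. Treatment: test compound, 48 hours, 5 concentrations. Analysis: linear interpolation between bracketing concentrations; unreached endpoints set to highest concentration. At the GI50, growth is halved. At the TGI there is no net growth.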

Some test systems named below: T-47D breast; ACHN renal; UO-31 renal; U251 CNS; M14 melanoma; HS 578T breast; A498 renal; 786-0 renal.
Holding throughout (experiment): DTP human tumour cell line panel, 48 h

As to `Nc1ccc(/C=C/c2ccc3cccnc3c2)cc1`, the TGI in the assay on T-47D breast, in the assay on ACHN renal, in the assay with UO-31 renal, in the assay on U251 CNS, in the assay with M14 melanoma and in the assay with HS 578T breast was greater than 100 µM each time. Besides, the TGI in the assay on A498 renal and with 786-0 renal was greater than 100 µM each time.
In the case of `COc1ccc(-c2cc(=O)c3c(O)c(OC)c(OC)c(OC)c3o2)cc1`, the TGI was greater than 100 µM with T-47D breast; greater than 100 µM with ACHN renal; greater than 100 µM with UO-31 renal; greater than 100 µM in the assay on U251 CNS; greater than 100 µM in the assay with M14 melanoma; greater than 93.7 µM with HS 578T breast. Further, the TGI in the assay on A498 renal was greater than 27.6 µM; in the assay on 786-0 renal it was greater than 100 µM.
As to `Cc1ccc(C(=O)NC2CC2)cc1-c1ccc2[nH]ncc2c1`, the GI50 in the assay with T-47D breast is greater than 25 µM; with ACHN renal, greater than 25 µM; in the assay on UO-31 renal, greater than 22.9 µM; in the assay on U251 CNS, greater than 25 µM; with M14 melanoma, greater than 25 µM; in the assay with HS 578T breast it was greater than 19.5 µM. The GI50 in the assay on A498 renal is greater than 12.7 µM; in the assay with 786-0 renal, greater than 25 µM. In addition, the TGI with T-47D breast, with ACHN renal, in the assay on UO-31 renal, in the assay on U251 CNS, with M14 melanoma and in the assay on HS 578T breast was greater than 25 µM in each case. The TGI in the assay with A498 renal and in the assay on 786-0 renal was greater than 25 µM each time.
On to `CC1(C)CCC[C@]2(C)c3ccccc3C(=O)CC12` (stereo partly specified), for which the GI50 in the assay with T-47D breast was 53.5 µM; with ACHN renal it was 67.4 µM; with UO-31 renal it was 53.1 µM; with U251 CNS, 42.3 µM; in the assay with M14 melanoma it was 38.6 µM; in the assay on HS 578T breast it was 23.2 µM. For the same compound, the GI50 in the assay on A498 renal was 26 µM; in the assay with 786-0 renal it was 64.9 µM. Moreover, the TGI with T-47D breast is greater than 100 µM; with ACHN renal it was greater than 100 µM; with UO-31 renal it was greater than 100 µM; in the assay with U251 CNS it was greater than 100 µM; in the assay with M14 melanoma, greater than 100 µM; with HS 578T breast, 95.3 µM. Also, the TGI was 71.4 µM with A498 renal and greater than 100 µM in the assay with 786-0 renal.
As for `C[N+](C)=c1ccc2nc3c(cc(NCCCNc4cc5oc6cc(=[N+](C)C)ccc-6nc5c5ccccc45)c4ccccc43)oc-2c1`, the GI50 in the assay with T-47D breast is 3.12 µM; in the assay with ACHN renal it was 2.17 µM; in the assay on UO-31 renal it was 1.75 µM; with U251 CNS it was 2.36 µM; in the assay on M14 melanoma, 1.63 µM; in the assay with HS 578T breast, 7.22 µM. In addition, the GI50 in the assay on A498 renal is 19.1 µM; in the assay with 786-0 renal, 4.66 µM. Besides, the TGI in the assay with T-47D breast is greater than 24.2 µM; in the assay with ACHN renal, 11.3 µM; in the assay on UO-31 renal, 14 µM; with U251 CNS it was 5.87 µM; in the assay on M14 melanoma it was 3.18 µM; with HS 578T breast, 45.6 µM. The figures for the TGI in the assay on A498 renal and in the assay with 786-0 renal were 46.9 µM and 43.4 µM, respectively.
For `COC(C)C(O)(C(=O)OCC1=CCN2CCC(O)C12)C(C)(C)O` (stereo unspecified), the TGI in the assay on T-47D breast, with ACHN renal, in the assay with UO-31 renal, with U251 CNS, with M14 melanoma and with HS 578T breast was greater than 100 µM each time. For the same compound, the TGI with A498 renal and in the assay on 786-0 renal was greater than 100 µM throughout.
For `Cc1cccc2c1[nH]c(=O)c1c3ccccc3cn21`, the GI50 in the assay on T-47D breast is 11.5 µM; in the assay on ACHN renal, 4.08 µM; in the assay with UO-31 renal, 5.66 µM; in the assay with U251 CNS, 6.57 µM; with M14 melanoma, 12.4 µM; with HS 578T breast it was 21.8 µM. Besides, the GI50 is 16.1 µM in the assay on A498 renal and 5.92 µM in the assay on 786-0 renal. Also, the TGI is 48.5 µM with T-47D breast; 22.5 µM with ACHN renal; greater than 100 µM in the assay with UO-31 renal; 19.4 µM with U251 CNS; 30.9 µM with M14 melanoma; 64.4 µM in the assay with HS 578T breast. The TGI was 42.1 µM in the assay with A498 renal and 32.2 µM in the assay on 786-0 renal.
`CS(=O)(=O)N(c1cc(-c2ccc3ncnc(Nc4ccc(F)c(Cl)c4)c3c2)cnc1Cl)S(C)(=O)=O`: the 50% growth inhibitory concentration (GI50) was 0.13 µM in the assay on T-47D breast; 1.11 µM in the assay on ACHN renal; 0.27 µM in the assay with UO-31 renal; 1.15 µM with U251 CNS; 1.17 µM with M14 melanoma; 0.218 µM in the assay with HS 578T breast. Moreover, the GI50 is 0.342 µM in the assay on A498 renal and 1.58 µM in the assay with 786-0 renal. The TGI was 1.8 µM in the assay on T-47D breast; 12.4 µM in the assay on ACHN renal; 2.99 µM in the assay with UO-31 renal; 13.4 µM with U251 CNS; 11.9 µM in the assay on M14 melanoma; 2.61 µM in the assay on HS 578T breast. Also, the total growth inhibition concentration (TGI) with A498 renal is 1.56 µM; in the assay on 786-0 renal, greater than 26.4 µM.
Turning to `CC[C@H](C)[C@H](NC(=O)c1cccn1C)C(=O)N(C)[C@H](C[C@@H](OC(C)=O)c1nc(C(=O)N[C@@H](Cc2ccccc2)C[C@H](C)C(=O)OC)cs1)C(C)C`, the GI50 was 0.0946 µM with T-47D breast; 0.502 µM in the assay with ACHN renal; 1.3 µM in the assay with UO-31 renal; 0.24 µM in the assay with U251 CNS; 0.131 µM in the assay with M14 melanoma; 0.226 µM with HS 578T breast. Further, the GI50 in the assay on A498 renal is 0.0722 µM; in the assay on 786-0 renal it was 0.172 µM. The TGI with T-47D breast is greater than 33.3 µM; in the assay with ACHN renal, greater than 33.3 µM; in the assay with UO-31 renal, greater than 33.3 µM; in the assay with U251 CNS, greater than 33.3 µM; in the assay with M14 melanoma it was 0.832 µM; in the assay on HS 578T breast, greater than 31.2 µM. Also, the TGI with A498 renal is 7.06 µM; in the assay with 786-0 renal it was greater than 15.8 µM.
With `COc1ccc(S(=O)(=O)N(C(C)=O)c2ccccc2/C=C/c2cc[n+]([O-])cc2)cc1`, the GI50 in the assay on T-47D breast was 3.84 µM; in the assay with ACHN renal, 2.36 µM; with UO-31 renal it was 5.02 µM; with U251 CNS it was 0.504 µM; with M14 melanoma it was 0.388 µM; in the assay on HS 578T breast, 0.404 µM. Moreover, the GI50 in the assay with A498 renal was 0.209 µM; in the assay on 786-0 renal it was 1.67 µM. The TGI in the assay with T-47D breast is greater than 10 µM; in the assay on ACHN renal, greater than 10 µM; with UO-31 renal, greater than 10 µM; with U251 CNS it was greater than 10 µM; with M14 melanoma, 8.08 µM; in the assay on HS 578T breast it was greater than 10 µM. Also, the total growth inhibition concentration (TGI) is greater than 2.8 µM with A498 renal and greater than 10 µM in the assay with 786-0 renal.
